This passage reports relative viability results from the supplement of paper PMC10307832.

In the first assay the test system is EMC-BAC-2. The assay is described as follows: relative viability (nuclei count vs DMSO), 5 days (fraction); higher = more cells survive. To be noted: first compound 2.53 µM. Summed up:
(§1)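 Cells from lung cancer lines were seeded into 1536-well plates and, one day later, dosed by pin tool. Treatments were either a single drug or a fixed dose of an anchor drug with five library-drug doses (not always all listed) in √10 steps. After 5 days, nuclei were stained in a one-step fixation (final 0.05% Triton X-100, 1% formaldehyde, 1 ug/ml Hoechst) and counted on 4× images, and relative viability is the treated-to-vehicle nuclei ratio, as the median of duplicate plates.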
Molecule `CCCCCCCCCCCC1=C(O)C(=O)C=C(O)C1=O` [Embelin] + O=C(CCCCCCC(=O)Nc1ccccc1)NO [Vorinostat] (partner 1 µM) gave a relative viability of 0.257.

In the case of `CCCCCCCCCCCC1=C(O)C(=O)C=C(O)C1=O` [Embelin] + O=C(c1cc(Cc2n[nH]c(=O)c3ccccc23)ccc1F)N1CCN(C(=O)C2CC2)CC1 [Olaparib] (partner 8 µM), the relative viability came to 0.453.

As to `CCCCCCCCCCCC1=C(O)C(=O)C=C(O)C1=O` [Embelin] + Cc1cc(Nc2cc(N3CCN(C)CC3)nc(Sc3ccc(NC(=O)C4CC4)cc3)n2)n[nH]1 [Tozasertib] (partner 0.1 µM), the relative viability was determined as 0.269.

`CCCCCCCCCCCC1=C(O)C(=O)C=C(O)C1=O` [Embelin] + Nc1ncn([C@H]2C[C@H](O)[C@@H](CO)O2)c(=O)n1 [Decitabine] (partner 2 µM): the relative viability was 0.958.

`CCCCCCCCCCCC1=C(O)C(=O)C=C(O)C1=O` [Embelin] + CC(=O)c1c(C)c2cnc(Nc3ccc(N4CCNCC4)cn3)nc2n(C2CCCC2)c1=O [Palbociclib] (partner 0.5 µM): the relative viability worked out at 0.536.

Still in this assay, the particulars now being: first compound 8 µM.
As for `CCCCCCCCCCCC1=C(O)C(=O)C=C(O)C1=O` [Embelin] + O=C(CCCCCCC(=O)Nc1ccccc1)NO [Vorinostat] (partner 1 µM), the relative viability was found to be 0.269.

The molecule `CCCCCCCCCCCC1=C(O)C(=O)C=C(O)C1=O` [Embelin] + O=C(c1cc(Cc2n[nH]c(=O)c3ccccc23)ccc1F)N1CCN(C(=O)C2CC2)CC1 [Olaparib] (partner 8 µM) yielded a relative viability of 0.492.

In turn, `CCCCCCCCCCCC1=C(O)C(=O)C=C(O)C1=O` [Embelin] + Cc1cc(Nc2cc(N3CCN(C)CC3)nc(Sc3ccc(NC(=O)C4CC4)cc3)n2)n[nH]1 [Tozasertib] (partner 0.1 µM) displayed a relative viability of 0.267.

Consider `CCCCCCCCCCCC1=C(O)C(=O)C=C(O)C1=O` [Embelin] + Nc1ncn([C@H]2C[C@H](O)[C@@H](CO)O2)c(=O)n1 [Decitabine] (partner 2 µM), for which the relative viability is 0.955.

`CCCCCCCCCCCC1=C(O)C(=O)C=C(O)C1=O` [Embelin] + CC(=O)c1c(C)c2cnc(Nc3ccc(N4CCNCC4)cn3)nc2n(C2CCCC2)c1=O [Palbociclib] (partner 0.5 µM) displayed a relative viability of 0.485.

Another assay relates to LCLC-97TM1. The description is as above. To be noted: first compound 0.08 µM. Summed up: as §1
Molecule `CCCCCCCCCCCC1=C(O)C(=O)C=C(O)C1=O` [Embelin] + O=C(CCCCCCC(=O)Nc1ccccc1)NO [Vorinostat] (partner 1 µM) displayed a relative viability of 0.789.

In turn, `CCCCCCCCCCCC1=C(O)C(=O)C=C(O)C1=O` [Embelin] + O=C(c1cc(Cc2n[nH]c(=O)c3ccccc23)ccc1F)N1CCN(C(=O)C2CC2)CC1 [Olaparib] (partner 8 µM) showed a relative viability of 0.38.

`CCCCCCCCCCCC1=C(O)C(=O)C=C(O)C1=O` [Embelin] + Cc1cc(Nc2cc(N3CCN(C)CC3)nc(Sc3ccc(NC(=O)C4CC4)cc3)n2)n[nH]1 [Tozasertib] (partner 0.1 µM) returned a relative viability of 0.186.

Turning to `CCCCCCCCCCCC1=C(O)C(=O)C=C(O)C1=O` [Embelin] + Nc1ncn([C@H]2C[C@H](O)[C@@H](CO)O2)c(=O)n1 [Decitabine] (partner 2 µM), the relative viability was determined as 0.241.

For `CCCCCCCCCCCC1=C(O)C(=O)C=C(O)C1=O` [Embelin] + CC(=O)c1c(C)c2cnc(Nc3ccc(N4CCNCC4)cn3)nc2n(C2CCCC2)c1=O [Palbociclib] (partner 0.5 µM), the relative viability is 0.184.

Staying with this assay, now noted: first compound 0.8 µM.
Molecule `CCCCCCCCCCCC1=C(O)C(=O)C=C(O)C1=O` [Embelin] + O=C(CCCCCCC(=O)Nc1ccccc1)NO [Vorinostat] (partner 1 µM) had a relative viability of 1.16.

Turning to `CCCCCCCCCCCC1=C(O)C(=O)C=C(O)C1=O` [Embelin] + O=C(c1cc(Cc2n[nH]c(=O)c3ccccc23)ccc1F)N1CCN(C(=O)C2CC2)CC1 [Olaparib] (partner 8 µM), the relative viability worked out at 0.462.

`CCCCCCCCCCCC1=C(O)C(=O)C=C(O)C1=O` [Embelin] + Cc1cc(Nc2cc(N3CCN(C)CC3)nc(Sc3ccc(NC(=O)C4CC4)cc3)n2)n[nH]1 [Tozasertib] (partner 0.1 µM) had a relative viability of 0.239.

In turn, `CCCCCCCCCCCC1=C(O)C(=O)C=C(O)C1=O` [Embelin] + Nc1ncn([C@H]2C[C@H](O)[C@@H](CO)O2)c(=O)n1 [Decitabine] (partner 2 µM) came in with a relative viability of 0.264.

The molecule `CCCCCCCCCCCC1=C(O)C(=O)C=C(O)C1=O` [Embelin] + CC(=O)c1c(C)c2cnc(Nc3ccc(N4CCNCC4)cn3)nc2n(C2CCCC2)c1=O [Palbociclib] (partner 0.5 µM) showed a relative viability of 0.215.

Staying with this assay, now noted: first compound 2.53 µM.
`CCCCCCCCCCCC1=C(O)C(=O)C=C(O)C1=O` [Embelin] + O=C(CCCCCCC(=O)Nc1ccccc1)NO [Vorinostat] (partner 1 µM) registered a relative viability of 0.652.

On to `CCCCCCCCCCCC1=C(O)C(=O)C=C(O)C1=O` [Embelin] + O=C(c1cc(Cc2n[nH]c(=O)c3ccccc23)ccc1F)N1CCN(C(=O)C2CC2)CC1 [Olaparib] (partner 8 µM), for which the relative viability turned out to be 0.445.

In turn, `CCCCCCCCCCCC1=C(O)C(=O)C=C(O)C1=O` [Embelin] + Cc1cc(Nc2cc(N3CCN(C)CC3)nc(Sc3ccc(NC(=O)C4CC4)cc3)n2)n[nH]1 [Tozasertib] (partner 0.1 µM) showed a relative viability of 0.265.

Molecule `CCCCCCCCCCCC1=C(O)C(=O)C=C(O)C1=O` [Embelin] + Nc1ncn([C@H]2C[C@H](O)[C@@H](CO)O2)c(=O)n1 [Decitabine] (partner 2 µM) returned a relative viability of 0.266.

Consider `CCCCCCCCCCCC1=C(O)C(=O)C=C(O)C1=O` [Embelin] + CC(=O)c1c(C)c2cnc(Nc3ccc(N4CCNCC4)cn3)nc2n(C2CCCC2)c1=O [Palbociclib] (partner 0.5 µM), for which the relative viability amounted to 0.262.

Staying with this assay, now noted: first compound 8 µM.
In the case of `CCCCCCCCCCCC1=C(O)C(=O)C=C(O)C1=O` [Embelin] + O=C(CCCCCCC(=O)Nc1ccccc1)NO [Vorinostat] (partner 1 µM), the relative viability stood at 0.496.

Consider `CCCCCCCCCCCC1=C(O)C(=O)C=C(O)C1=O` [Embelin] + O=C(c1cc(Cc2n[nH]c(=O)c3ccccc23)ccc1F)N1CCN(C(=O)C2CC2)CC1 [Olaparib] (partner 8 µM), for which the relative viability stood at 0.45.

`CCCCCCCCCCCC1=C(O)C(=O)C=C(O)C1=O` [Embelin] + Cc1cc(Nc2cc(N3CCN(C)CC3)nc(Sc3ccc(NC(=O)C4CC4)cc3)n2)n[nH]1 [Tozasertib] (partner 0.1 µM) came in with a relative viability of 0.218.

`CCCCCCCCCCCC1=C(O)C(=O)C=C(O)C1=O` [Embelin] + Nc1ncn([C@H]2C[C@H](O)[C@@H](CO)O2)c(=O)n1 [Decitabine] (partner 2 µM): the relative viability is 0.235.

Take `CCCCCCCCCCCC1=C(O)C(=O)C=C(O)C1=O` [Embelin] + CC(=O)c1c(C)c2cnc(Nc3ccc(N4CCNCC4)cn3)nc2n(C2CCCC2)c1=O [Palbociclib] (partner 0.5 µM): the relative viability was determined as 0.242.
